Active and inactive are the calls of the source. The calls are words filed in the database; no cut-off is given here.
What was measured:
NCI-H460 [1] = assay: Upregulation of p53 protein expression in human NCI-H460 cells at 2.5 uM measured after 24 hrs by Western blot analysis; assay type: functional, cell-based
U2OS [2] = assay: Upregulation of p53 protein expression in human U2OS cells at 2.5 uM measured after 24 hrs by Western blot analysis; assay type: functional, cell-based
RKO [3] = assay: Antitumor activity against human RKO cells xenografted in BALB/c mouse assessed as tumor growth inhibition at 50 mg/kg, po qd administered via gavage for 21 consecutive days and measured on day 21 relative to control; assay type: functional; details: 504 h, time 21 day, read-out: TGI
MCF7 [4] = assay: Upregulation of p53 protein expression in human MCF7 cells at 2.5 uM measured after 24 hrs by Western blot analysis; assay type: functional, cell-based
NCI-H460 [5] = assay: Upregulation of p21 protein expression in human NCI-H460 cells at 2.5 uM measured after 24 hrs by Western blot analysis; assay type: functional, cell-based
U2OS [6] = assay: Upregulation of MDM2 protein expression in human U2OS cells at 2.5 uM measured after 24 hrs by Western blot analysis; assay type: functional, cell-based
U2OS [7] = assay: Effect on MDM4 protein expression in human U2OS cells at 2.5 uM measured after 24 hrs by Western blot analysis; assay type: functional, cell-based
RKO [8] = assay: Induction of apoptosis in human RKO cells assessed as necrotic cells at 25 uM measured after 48 hrs by Annexin V-FITC/PI staining based flow cytometry analysis (reference value: 2.08 %); assay type: functional
NCI-H460 [9] = assay: Downregulation of MDM4 protein expression in human NCI-H460 cells at 2.5 uM measured after 24 hrs by Western blot analysis; assay type: functional, cell-based
MCF7 [10] = assay: Effect on MDM4 protein expression in human MCF7 cells at 2.5 uM measured after 24 hrs by Western blot analysis; assay type: functional, cell-based
[11] = target: Cyclin-dependent kinase inhibitor 1 (Homo sapiens) (UniProt P38936); assay: Activation of p21 in human HCT-116 cells incubated for 24 hrs by Western blot analysis; assay type: cell-based; details: filed as activator, dose 0.078125-2.5 µM, DDE = dose-dependent effect
Cyclin-dependent kinase inhibitor 1 (Homo sapiens), sequence (P38936 whole entry): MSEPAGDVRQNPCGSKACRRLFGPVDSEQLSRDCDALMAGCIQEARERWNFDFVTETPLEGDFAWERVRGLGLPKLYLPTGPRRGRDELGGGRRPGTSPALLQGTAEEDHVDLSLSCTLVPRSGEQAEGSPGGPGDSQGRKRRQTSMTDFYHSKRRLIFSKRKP

U2OS [12] = assay: cells; details: Homo sapiens, 96 h
HCT-116 [13] = assay: cells; details: Homo sapiens, HCT-116, 96 h
[14] = target: Cellular tumor antigen p53 (Homo sapiens) (UniProt P04637); assay: Activation of p53 pathway in human HCT-116 cells incubated for 24 hrs by Western blot analysis; assay type: cell-based; details: filed as activator, dose 0.078125-2.5 µM, DDE = dose-dependent effect
Cellular tumor antigen p53 (Homo sapiens), sequence (P04637 whole entry, looked up): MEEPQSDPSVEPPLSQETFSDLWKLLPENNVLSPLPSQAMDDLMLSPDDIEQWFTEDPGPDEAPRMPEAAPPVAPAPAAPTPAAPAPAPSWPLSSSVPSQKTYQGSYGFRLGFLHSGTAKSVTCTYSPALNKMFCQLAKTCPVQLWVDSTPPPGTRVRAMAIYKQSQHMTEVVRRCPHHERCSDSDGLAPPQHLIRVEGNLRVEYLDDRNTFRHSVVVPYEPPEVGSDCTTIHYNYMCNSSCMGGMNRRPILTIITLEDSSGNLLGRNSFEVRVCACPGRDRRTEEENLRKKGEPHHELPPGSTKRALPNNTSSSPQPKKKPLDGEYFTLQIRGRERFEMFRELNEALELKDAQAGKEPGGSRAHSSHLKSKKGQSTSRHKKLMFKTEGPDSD

HCT-116 [15] = assay: Upregulation of p53 protein expression in human HCT-116 cells at 2.5 uM measured after 24 hrs by Western blot analysis; assay type: functional, cell-based
RKO [16] = assay: Induction of PARP cleavage in human RKO cells at 0.3125 to 2.5 uM incubated for 24 hrs by Western blot analysis; assay type: functional, cell-based; details: dose 0.3125-2.5 µM
RKO [17] = assay: Upregulation of p21 expression in human RKO cells incubated for 24 hrs by Western blot analysis; assay type: functional, cell-based; details: dose 0.3125-2.5 µM, DDE = dose-dependent effect
MCF7 [18] = assay: cells; details: Homo sapiens, MCF7, 96 h

## COc1cc(C(=O)O)ccc1NC(=O)[C@@H]1N[C@@H](CC(C)(C)C)[C@](CNCc2ccncc2)(c2ccc(Cl)cc2F)[C@H]1c1cccc(Cl)c1F
NCI-H460 [1]
  Activity: Active
U2OS [2]
  Activity: Active
RKO [3]
  inhibition in vivo at 50 mg/kg: 5%
MCF7 [4]
  Activity: Active
NCI-H460 [5]
  Activity: Active
U2OS [6]
  Activity: Active
U2OS [7]
  Activity: Active
RKO [8]
  Activity: 1.31%
NCI-H460 [9]
  Activity: Active
MCF7 [10]
  Activity: Active
[11]
  Activity: Dde
U2OS [12]
  IC50: 370 nM
HCT-116 [13]
  IC50: 50.7 nM
[14]
  Activity: Dde
HCT-116 [15]
  Activity: Active
RKO [16]
  Activity: Active
RKO [17]
  Activity: Dde
MCF7 [18]
  IC50: 520 nM

Reference: ChEMBL document CHEMBL5154862, “Structure-Based Discovery of MDM2/4 Dual Inhibitors that Exert Antitumor Activities against MDM4-Overexpressing Cancer Cells” (J Med Chem, 2022)
